Experimental data reported in the supplement of paper PMC10307832.

Tests used:
Assay in all cases: relative viability (nuclei count vs DMSO), 5 days (fraction); higher = more cells survive
Kobe2602 + Crizotinib = compound: C1=CC(=CC=C1NC(=S)NNC2=C(C=C(C=C2[N+](=O)[O-])C(F)(F)F)[N+](=O)[O-])F [Kobe2602] + C[C@@H](Oc1cc(-c2cnn(C3CCNCC3)c2)cnc1N)c1c(Cl)ccc(F)c1Cl [Crizotinib] (partner 1 µM)
Method in brief: (§1)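 Relative viability equals treated-well nuclei counts divided by vehicle-well nuclei counts. Counts came from 4× images of lung cancer cell lines grown in 1536-well plates for 5 days after pin-tool dosing on the day after seeding. Dosing used one drug alone or a fixed anchor-drug dose plus five library-drug doses (not always all listed) in √10 steps, and values are medians of duplicate plates.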

Kobe2602 + Linsitinib = compound: C1=CC(=CC=C1NC(=S)NNC2=C(C=C(C=C2[N+](=O)[O-])C(F)(F)F)[N+](=O)[O-])F [Kobe2602] + C[C@]1(O)C[C@@H](c2nc(-c3ccc4ccc(-c5ccccc5)nc4c3)c3c(N)nccn32)C1 [Linsitinib] (partner 1 µM)
Method in brief: as §1

Kobe2602 + Decitabine = compound: C1=CC(=CC=C1NC(=S)NNC2=C(C=C(C=C2[N+](=O)[O-])C(F)(F)F)[N+](=O)[O-])F [Kobe2602] + Nc1ncn([C@H]2C[C@H](O)[C@@H](CO)O2)c(=O)n1 [Decitabine] (partner 2 µM)
Method in brief: as §1

Zosuquidar + Bortezomib = compound: O[C@@H](COc1cccc2ncccc12)CN1CCN([C@@H]2c3ccccc3[C@@H]3[C@H](c4ccccc42)C3(F)F)CC1 [Zosuquidar] + CC(C)C[C@H](NC(=O)[C@H](Cc1ccccc1)NC(=O)c1cnccn1)B(O)O [Bortezomib] (partner 0.002 µM)
Method in brief: as §1

Cell Line | relative viability (Kobe2602 + Crizotinib; first compound 0.2 µM) | relative viability (Kobe2602 + Crizotinib; first compound 0.6325 µM) | relative viability (Kobe2602 + Crizotinib; first compound 2 µM) | relative viability (Kobe2602 + Crizotinib; first compound 6.325 µM) | relative viability (Kobe2602 + Crizotinib; first compound 20 µM) | relative viability (Kobe2602 + Linsitinib; first compound 0.2 µM) | relative viability (Kobe2602 + Linsitinib; first compound 0.6325 µM) | relative viability (Kobe2602 + Linsitinib; first compound 2 µM) | relative viability (Kobe2602 + Linsitinib; first compound 6.325 µM) | relative viability (Kobe2602 + Linsitinib; first compound 20 µM) | relative viability (Kobe2602 + Decitabine; first compound 0.2 µM) | relative viability (Kobe2602 + Decitabine; first compound 0.6325 µM) | relative viability (Kobe2602 + Decitabine; first compound 2 µM) | relative viability (Kobe2602 + Decitabine; first compound 6.325 µM) | relative viability (Kobe2602 + Decitabine; first compound 20 µM) | relative viability (Zosuquidar + Bortezomib; first compound 0.01 µM) | relative viability (Zosuquidar + Bortezomib; first compound 0.03162 µM) | relative viability (Zosuquidar + Bortezomib; first compound 0.1 µM) | relative viability (Zosuquidar + Bortezomib; first compound 0.3162 µM) | relative viability (Zosuquidar + Bortezomib; first compound 1 µM)
NCI-H1355 | 1.04 | 1.12 | 0.747 | 0.952 | 0.957 | 0.784 | 0.782 | 0.749 | 0.769 | 0.787 | 0.312 | 0.368 | 0.301 | 0.346 | 0.358 | 1.15 | 1.26 | 1.1 | 1.33 | 1.24
NCI-H1437 | 0.862 | 0.918 | 0.902 | 0.91 | 0.9 | 0.974 | 0.995 | 1.03 | 0.998 | 0.872 | 0.578 | 0.495 | 0.611 | 0.559 | 0.491 | 0.468 | 0.442 | 0.475 | 0.53 | 0.463
NCI-H1651 | 0.908 | 0.887 | 0.978 | 0.847 | 0.859 | 0.83 | 1.14 | 1.07 | 0.976 | 0.906 | 0.588 | 0.481 | 0.71 | 0.578 | 0.936 | 0.928 | 0.984 | 0.882 | 0.91 | 0.866
NCI-H1666 | 0.919 | 1.01 |  | 1 | 0.746 | 0.683 | 0.76 |  | 0.713 | 0.76 | 0.725 | 0.693 | 0.69 | 0.724 | 0.812 | 1 | 0.905 | 0.714 | 1.15 | 0.798
NCI-H1734 | 0.71 | 0.652 | 0.604 | 0.599 | 0.735 | 0.895 | 0.899 | 0.849 | 0.964 | 0.897 | 0.49 | 0.539 | 0.497 | 0.48 | 0.481 | 0.771 | 0.959 | 0.918 | 0.997 | 1.06
NCI-H1755 | 0.842 | 0.851 | 0.821 | 0.83 | 0.884 | 0.949 | 0.898 | 0.986 | 0.977 | 0.982 | 0.711 | 0.692 | 0.738 | 0.698 | 0.764 | 0.923 | 0.873 | 0.901 | 1.12 | 0.934
NCI-H1792 | 0.965 | 0.928 | 0.985 | 0.726 | 1.05 | 0.563 | 0.53 | 0.613 | 0.521 | 0.558 | 0.489 | 0.512 | 0.461 | 0.472 | 0.526 | 0.836 | 0.495 | 0.906 | 0.907 | 0.96
NCI-H1915 | 0.886 | 0.92 | 0.897 | 0.931 | 0.91 | 1.08 | 1.12 | 1.08 | 1.08 | 1.1 | 0.247 | 0.263 | 0.256 | 0.265 | 0.269 | 1 | 0.995 | 1 | 1.01 | 1
